Source: US20170368134A1, “PROTEASOME INHIBITORS FOR TREATING A DISORDER RELATED TO AN ACCUMULATION OF NON-DEGRADED ABNORMAL PROTEIN OR A CANCER” (UNIVERSITÉ D'AIX-MARSEILLE, priority 2015, published 2017)
Square brackets hold non-standard residues; d marks the D form. Peptide text beside a SMILES is read from it. * marks the point of attachment. Nva = CCC[C@H](N)C(=O)O; Cbz = O=C(OCc1ccccc1)*; CH2F = FC*

Tests used:
[1] = tested on: SRSF-1; experiment: Western blot of SRSF-1 in HGPS fibroblasts; format: cell-based, human; conditions: for SRSF-1 levels, autophagy inhibitor alone: HGPS fibroblasts, chloroquine 50 μM, bafilomycin A1 100 nM
Experimental: (§1) Total fibroblast proteins were extracted in 200 μL of NP40 Cell Lysis buffer (Invitrogen, Carlsbad, Calif.) containing Protease and Phosphatase Inhibitor Cocktail (Thermo Scientific). Alternatively, cells were lysed with urea (8 M urea, 5 mM dithiothreitol, 150 mM NaCl, 50 mM Tris-Cl pH 7.5, protease and phosphatase Inhibitor Cocktail (Thermo Scientific)). Cells were sonicated twice (30 sec each), incubated at 4° C. for 30 minutes and then centrifuged at 10,000 g for 10 minutes. Protein concentration was evaluated with the bicinchoninic acid technique (Pierce BCA Protein Assay Kit), absorbance at 562 nm is measured using nanodrop 1000 (Thermo Fisher Scientific Inc.) Equal amounts of proteins (40 μg) were loaded onto 10% Tis-Glycine gel (Criterion™ XT precast gel) using XT Tricine running Buffer (Biorad, USA). After electrophoresis, gels were electro transferred onto nitrocellulose membranes or Immobilon-FL polyvinylidene fluoride membranes (Millipore), blocked in Odyssey Blocking Buffer diluted 1:1 in PBS for 1 hour at room temperature, and incubated overnight at 4° C. or 2 hours at room temperature with various primary antibodies. Blots were washed with TBS-T buffer [20 mM tris (pH 7.4), 150 mM NaCl, and 0.05% Tween 20] and incubated with 1:10,000 IR-Dye 800-conjugated secondary donkey anti-goat or IR-Dye 700-conjugated secondary anti-mouse antibodies (LI-COR Biosciences) in Odyssey blocking buffer (LI-COR Biosciences). For IR-Dye 800 and IR-Dye 700 detection, an Odyssey Infrared Imaging System (LI-COR Biosciences) was used. GAPDH, α-tubulin or β-actin were used as a total cellular protein loading control.

[2] = tested on: progerin; experiment: Western blot of progerin levels in HGPS fibroblasts; format: cell-based, human; conditions: HGPS fibroblasts; for progerin expression levels, inhibitor alone: alone at high doses; for progerin clearance / suppression of progerin accumulation compared with MG132: 10 μM, 48 h (FIG. 1C); for effect on MG132-induced progerin clearance (co-treatment with MG132): 48 h, added together with MG132
Experimental: HGPS fibroblasts (AG01972: person, AG11498: person) were obtained from the Coriell Cell Repository. Cells were cultured in Dulbecco's modified Eagle's medium (Life Technologies) supplemented with 15% fetal bovine serum (Life Technologies), 2 mM L-glutamine (Life Technologies) and 1× penicillin-streptomycin (Life Technologies) at 37° C. in a humidified atmosphere containing 5% CO2. […]
as §1

[3] = biological target: T1, proteasome (Homo sapiens, UniProt P28072+P28074+Q99436); experiment: Proteasome-Glo cell-based proteasome activities (chymotrypsin-like, trypsin-like, caspase-like) in HGPS cells; conditions: HGPS cells treated with the autophagy inhibitor
T1 construct: The proteasome activities were determined in HGPS and control cells; endogenous in cells; host or cells: HGPS fibroblasts (AG01972, AG11498, 5968)
T1 sequence (P28074 60-263): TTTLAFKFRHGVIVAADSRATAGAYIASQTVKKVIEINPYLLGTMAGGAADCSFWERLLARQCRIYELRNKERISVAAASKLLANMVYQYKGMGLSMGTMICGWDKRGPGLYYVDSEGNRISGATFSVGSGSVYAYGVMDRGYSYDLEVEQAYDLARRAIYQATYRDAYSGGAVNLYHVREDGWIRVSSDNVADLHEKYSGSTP
T1 sequence (Q99436 44-277): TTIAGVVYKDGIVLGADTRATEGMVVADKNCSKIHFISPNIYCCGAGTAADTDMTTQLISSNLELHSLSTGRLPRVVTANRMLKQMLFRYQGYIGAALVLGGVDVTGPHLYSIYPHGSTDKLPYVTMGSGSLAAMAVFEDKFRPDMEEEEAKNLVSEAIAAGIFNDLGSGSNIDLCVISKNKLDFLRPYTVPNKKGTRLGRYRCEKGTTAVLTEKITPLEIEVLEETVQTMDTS
T1 sequence (P28072 1-239): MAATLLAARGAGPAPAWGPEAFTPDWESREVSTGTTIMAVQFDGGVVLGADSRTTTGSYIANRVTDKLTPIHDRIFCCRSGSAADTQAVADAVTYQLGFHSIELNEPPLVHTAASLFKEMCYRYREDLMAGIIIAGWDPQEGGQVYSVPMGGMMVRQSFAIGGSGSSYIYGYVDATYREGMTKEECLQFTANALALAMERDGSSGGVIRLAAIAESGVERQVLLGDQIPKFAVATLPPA
Experimental: The proteasome activities were determined in HGPS and control cells by using the Proteasome-Glo™ 3-Substrate Cell-Based Assay System (Promega) that allows to measure the chymotrypsin-like, trypsin-like or caspase-like protease activity associated with the proteasome complex in cultured cells. The Proteasome-Glo™ Cell-Based Reagents each contain a specific luminogenic proteasome substrate. These peptide substrates are Suc-LLVY amino luciferin (Succinyl-leucine-leucine-valine-tyro sine-amino luciferin), Z-LRR-amino luciferin (Z-leucine-arginine-arginine-aminoluciferin) and Z-nLPnLD-amino luciferin (Z-norleucine-proline-norleucine-aspartate-amino luciferin) for the chymotrypsin-like, trypsin-like and caspase-like activities, respectively. Cells (10,000 cells/well) were cultured in 100 μl/well in a 96-well plate at 37° C., 5% CO2. The plate was allowed to equilibrate to 22° C. before 100 μl/well of substrate and luciferin detection reagent was added. The contents of the wells were mixed at 700 rpm using a plate shaker for 2 minutes and incubated at room temperature for 10 minutes. Following cleavage by the proteasome, the substrate for luciferase (amino luciferin) is released, allowing the luciferase reaction to proceed and produce light. Luminescence is determined as relative light units (RLUs) using a GloMax-Multi Detection System: Luminometer (Promega, USA).

Row | SMILES | progerin clearance / suppression of progerin accumulation compared with MG132 [2] | effect on MG132-induced progerin clearance (co-treatment with MG132) [2] | other results
1 | CCN(CC)CCCC(C)Nc1ccnc2cc(Cl)ccc12 (stereo not drawn) [chloroquine] | – | – | SRSF-1 levels, autophagy inhibitor alone [1]: decrease SRSF-1 levels; progerin expression levels, inhibitor alone [2]: reduced expression levels of progerin; three proteasome activities [3]: not modified
2 | CCC[C@@H](C=O)NC(=O)[C@H](CC(C)C)NC(=O)[C@H](CC(C)C)NC(=O)OCc1ccccc1 [MG115, Z-Leu-Leu-Nva-H] (Cbz-Leu-Leu-[Nva]-aldehyde) | the same efficacy in suppressing progerin accumulation | – | –
3 | CC(C)C[C@H](NC(=O)[C@H](CCc1ccccc1)NC(=O)CN1CCOCC1)C(=O)N[C@@H](Cc1ccccc1)C(=O)N[C@@H](CC(C)C)C(=O)[C@@]1(C)CO1 [carfilzomib] | do not induce progerin clearance | – | –
4 | CC(C)C[C@H](NC(=O)[C@H](CC(C)C)NC(=O)[C@H](CC(C)C)NC(=O)OCc1ccccc1)B(O)O [MG262, Z-Leu-Leu-Leu-B(OH)2] | less effective | – | –
5 | COC(=O)C[C@H](NC(=O)[C@H](C)NC(=O)[C@@H](NC(=O)OCc1ccccc1)C(C)C)C(=O)CF [pan-caspase inhibitor, Z-VAD-FMK] (Cbz-Val-Ala-Asp(OMe)-CH2F) | – | increase of progerin that slightly reaches the control levels | SRSF-1 protein expression, added during MG132 treatment ([1]; HGPS cells, co-treatment with MG132): rescue of SRSF-1 protein expression
6 | CCC(=C/[C@H](C)C/C=C/C(C)=C/[C@@H](C)C(=O)[C@@H](C)[C@H](O)[C@@H](C)C/C(C)=C/C(=O)O)/C=C/[C@@H]1OC(=O)C=C[C@@H]1C [leptomycin B] | – | does not inhibit MG132 induced progerin clearance | –
7 | CC[C@H](C)[C@H](NC(=O)[C@H](CCC(=O)OC)NC(=O)[C@@H](NC(=O)OCc1ccccc1)C(C)C)C(=O)N[C@@H](CC(=O)OC)C(=O)CF [caspase-6 inhibitor, Z-VEID-FMK] (Cbz-VE(OMe)ID(OMe)-CH2F) | – | progerin level remained below the HGPS control | –
8 | CC(C)C[C@H](NC(=O)[C@H](Cc1ccccc1)NC(=O)c1cnccn1)B(O)O [bortezomib] | do not induce progerin clearance | – | –
9 | CO/C1=C\C(C)=C\[C@@H](C)[C@@H](O)[C@@H](C)C/C(C)=C/C=C/[C@H](OC)[C@@H]([C@@H](C)[C@@H](O)[C@H](C)[C@@]2(O)C[C@@H](O)[C@H](C)[C@@H](C(C)C)O2)OC1=O [bafilomycin A1] | – | partially inhibited the effect of MG132 | SRSF-1 levels, autophagy inhibitor alone [1]: decrease SRSF-1 levels; progerin expression levels, inhibitor alone [2]: reduced expression levels of progerin; three proteasome activities [3]: not modified
